Earlier results, collected in patent US20070191377A1, “Methods for treating blood disorders with nitric oxide donor compounds” (NitroMed, Inc., priority 2004, published 2007).

**Q.** Which “solubility in organic solvents” value (organic solvents such as ethanol, ether and chloroform) does the source give for `O=[N+]([O-])O[C@H]1CO[C@H]2[C@@H]1OC[C@H]2O[N+](=O)[O-]` [isosorbide dinitrate, 1,4,3,6-dianhydro-D-glucitol-2,5-dinitrate] here?
**A.** freely soluble

**Q.** What about the solubility in water (water) of the same compound?
**A.** sparingly soluble
